Assay results reported in patent publication EP4603105A1, “PHARMACEUTICAL COMPOSITION CONTAINING CYCLIC COMPOUND HAVING SELECTIVE KRAS INHIBITORY EFFECT AGAINST HRAS AND NRAS” (CHUGAI SEIYAKU KABUSHIKI KAISHA, priority 2022, dated 2024).

Assays:
[1] = system: human lung cancer strain NCI-H441; assay type: cell-based
Method in brief: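 Proliferation was scored by […] measured after the reagent was added to cultures kept at 37°C in 5% carbon dioxide.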

HRAS wild-type protein = HRAS wild-type protein (Homo sapiens, UniProt P01112); experiment: Binding to HRAS by surface plasmon resonance (SPR), KD and KD ratio to KRAS; conditions: ratio of KD value for HRAS wild-type protein to KD value for KRAS (SPR)
Method in brief: (§1)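 Compound binding is evaluated by SPR single-cycle kinetics, with concentrations added intermittently from low to high for 75 s each. Target surfaces carry GDP-loaded biotinylated Avi-RAS at about 100–300 RU, regenerated after each cycle; temperature 30°C. A 1:1 binding model gives KD.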

[2] = biological target: GDP-bound NRAS wild-type protein (Homo sapiens, UniProt P01111); experiment: Binding to NRAS by surface plasmon resonance (SPR), KD and KD ratio to KRAS; conditions: ratio of KD value for GDP-bound NRAS wild-type protein to KD value for KRAS (SPR)
Method in brief: as §1

Chain of HRAS wild-type protein (P01112 whole entry): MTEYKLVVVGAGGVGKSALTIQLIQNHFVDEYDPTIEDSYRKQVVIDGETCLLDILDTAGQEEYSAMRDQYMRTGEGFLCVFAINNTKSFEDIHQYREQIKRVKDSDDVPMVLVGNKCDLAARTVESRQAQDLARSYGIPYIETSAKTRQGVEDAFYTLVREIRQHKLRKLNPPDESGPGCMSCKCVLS
Chain of GDP-bound NRAS wild-type protein (P01111 whole entry): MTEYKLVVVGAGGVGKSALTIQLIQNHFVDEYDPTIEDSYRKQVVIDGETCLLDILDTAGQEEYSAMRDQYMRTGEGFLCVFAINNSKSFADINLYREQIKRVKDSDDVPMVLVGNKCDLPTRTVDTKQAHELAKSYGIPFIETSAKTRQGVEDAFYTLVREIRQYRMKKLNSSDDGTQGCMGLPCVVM

| Compound | IC50 [1] [nM] | HRAS /KRAS (HRAS wild-type protein) | NRAS /KRAS [2] |
| --- | --- | --- | --- |
| CC[C@H](C)[C@@H]1NC(=O)[C@H](CC(C)C)N(C)C(=O)C[C@@H](C(=O)N(C)CC)N(C)C(=O)[C@H](C2CCCC2)N(C)C(=O)C2(CC(C)(C)C2)NC(=O)[C@@H]2C[C@@H](F)CN2C(=O)[C@H](CCc2cc(F)c(C(F)(F)F)c(F)c2)NC(=O)CN(C)C(=O)[C@H](Cc2ccc(C(F)(F)F)cc2)N2CC/C=C\C[C@@H](C2=O)N(C)C(=O)CN(C)C1=O [PP1694] | 4.1 | A (a compound having 10 or more and less than 20 is denoted as A) | A (a compound having 10 or more and less than 20 is denoted as A) |
| CCCN(C)C(=O)[C@@H]1CC(=O)N(C)[C@@H](COC)C(=O)N[C@@H]([C@@H](C)CC)C(=O)N(C)CC(=O)N(C)[C@H]2C/C=C\CCN(C2=O)[C@@H](Cc2ccc(C(F)(F)F)cc2)C(=O)N(C)CC(=O)N[C@@H](CCc2cc(F)c(C(F)(F)F)c(F)c2)C(=O)N2C[C@H](F)C[C@H]2C(=O)NC2(CC(C)(C)C2)C(=O)N(C)[C@@H](C2CCCC2)C(=O)N1C [PP1696] | 2.9 | A (a compound having 10 or more and less than 20 is denoted as A) | AA (a compound having 20 or more is denoted as AA) |
| CCCOC[C@H]1C(=O)N[C@@H]([C@@H](C)CC)C(=O)N(C)CC(=O)N(C)[C@H]2C/C=C\CCN(C2=O)[C@@H](Cc2ccc(C(F)(F)F)cc2)C(=O)N(C)CC(=O)N[C@@H](CCc2cc(F)c(C(F)(F)F)c(F)c2)C(=O)N2C[C@H](F)C[C@H]2C(=O)NC2(CC(C)(C)C2)C(=O)N(C)[C@@H](C2CCCC2)C(=O)N(C)[C@H](C(=O)N(C)CC)CC(=O)N1C [PP1697] | 3.6 | A (a compound having 10 or more and less than 20 is denoted as A) | A (a compound having 10 or more and less than 20 is denoted as A) |
| CCCOC[C@H]1C(=O)N[C@@H]([C@@H](C)CC)C(=O)N(C)CC(=O)N(C)[C@H]2C/C=C\CCN(C2=O)[C@@H](Cc2ccc(C(F)(F)F)cc2)C(=O)N(C)CC(=O)N[C@@H](CCc2cc(F)c(C(F)(F)F)c(F)c2)C(=O)N2C[C@H](F)C[C@H]2C(=O)NC2(CC(C)(C)C2)C(=O)N(C)[C@@H](C2CCCC2)C(=O)N(C)[C@H](C(=O)N(C)CCC)CC(=O)N1C [PP1698] | 5.1 | A (a compound having 10 or more and less than 20 is denoted as A) | A (a compound having 10 or more and less than 20 is denoted as A) |
| CCCN(C)C(=O)[C@@H]1CC(=O)N(C)[C@@H](CC)C(=O)N[C@@H]([C@@H](C)CC)C(=O)N(C)CC(=O)N(C)[C@H]2C/C=C\CCN(C2=O)[C@@H](Cc2ccc(C(F)(F)F)cc2)C(=O)N(C)CC(=O)N[C@@H](CCc2cc(F)c(C(F)(F)F)c(F)c2)C(=O)N2C[C@H](OCC)C[C@H]2C(=O)NC2(CCC2)C(=O)N(C)[C@@H](C2CCCC2)C(=O)N1C [PP1699] | 2.5 | A (a compound having 10 or more and less than 20 is denoted as A) | A (a compound having 10 or more and less than 20 is denoted as A) |
| CCCN(C)C(=O)[C@@H]1CC(=O)N(C)[C@@H](CC(F)F)C(=O)N[C@@H]([C@@H](C)CC)C(=O)N(C)CC(=O)N(C)[C@H]2C/C=C\CCN(C2=O)[C@@H](Cc2ccc(C(F)(F)F)cc2)C(=O)N(C)CC(=O)N[C@@H](CCc2cc(F)c(C(F)(F)F)c(F)c2)C(=O)N2C[C@H](OCC)C[C@H]2C(=O)NC2(CCC2)C(=O)N(C)[C@@H](C2CCCC2)C(=O)N1C [PP1700] | 3.6 | A (a compound having 10 or more and less than 20 is denoted as A) | A (a compound having 10 or more and less than 20 is denoted as A) |
| CCCN(C)C(=O)[C@@H]1CC(=O)N(C)[C@@H](CC(F)(F)F)C(=O)N[C@@H]([C@@H](C)CC)C(=O)N(C)CC(=O)N(C)[C@H]2C/C=C\CCN(C2=O)[C@@H](Cc2ccc(C(F)(F)F)cc2)C(=O)N(C)CC(=O)N[C@@H](CCc2cc(F)c(C(F)(F)F)c(F)c2)C(=O)N2C[C@H](OCC)C[C@H]2C(=O)NC2(CCC2)C(=O)N(C)[C@@H](C2CCCC2)C(=O)N1C [PP1702] | 4.9 | A (a compound having 10 or more and less than 20 is denoted as A) | A (a compound having 10 or more and less than 20 is denoted as A) |

Continued, in another order:

| IC50 [1] [nM] | Compound | HRAS /KRAS (HRAS wild-type protein) | NRAS /KRAS [2] |
| --- | --- | --- | --- |
| 7.2 | C#CC[C@H]1C(=O)N[C@@H]([C@@H](C)CC)C(=O)N(C)CC(=O)N(C)[C@H]2C/C=C\CCN(C2=O)[C@@H](Cc2ccc(C(F)(F)F)cc2)C(=O)N(C)CC(=O)N[C@@H](CCc2cc(F)c(C(F)(F)F)c(F)c2)C(=O)N2C[C@H](OCC)C[C@H]2C(=O)NC2(CCC2)C(=O)N(C)[C@@H](C2CCCC2)C(=O)N(C)[C@H](C(=O)N(C)CCC)CC(=O)N1C [PP1703] | A (a compound having 10 or more and less than 20 is denoted as A) | A (a compound having 10 or more and less than 20 is denoted as A) |
| 10.3 | CCCC[C@H]1C(=O)N[C@@H]([C@@H](C)CC)C(=O)N(C)CC(=O)N(C)[C@H]2C/C=C\CCN(C2=O)[C@@H](Cc2ccc(C(F)(F)F)cc2)C(=O)N(C)CC(=O)N[C@@H](CCc2cc(F)c(C(F)(F)F)c(F)c2)C(=O)N2C[C@H](OCC)C[C@H]2C(=O)NC2(CCC2)C(=O)N(C)[C@@H](C2CCCC2)C(=O)N(C)[C@H](C(=O)N(C)CCC)CC(=O)N1C [PP1704] | A (a compound having 10 or more and less than 20 is denoted as A) | A (a compound having 10 or more and less than 20 is denoted as A) |
| 8 | CCCN(C)C(=O)[C@@H]1CC(=O)N(C)[C@@H](CC2CCC2)C(=O)N[C@@H]([C@@H](C)CC)C(=O)N(C)CC(=O)N(C)[C@H]2C/C=C\CCN(C2=O)[C@@H](Cc2ccc(C(F)(F)F)cc2)C(=O)N(C)CC(=O)N[C@@H](CCc2cc(F)c(C(F)(F)F)c(F)c2)C(=O)N2C[C@H](OCC)C[C@H]2C(=O)NC2(CCC2)C(=O)N(C)[C@@H](C2CCCC2)C(=O)N1C [PP1705] | A (a compound having 10 or more and less than 20 is denoted as A) | AA (a compound having 20 or more is denoted as AA) |
| 7.4 | CC[C@H](C)[C@@H]1NC(=O)[C@H](C)N(C)C(=O)C[C@@H](C(=O)N(C)C)N(C)C(=O)[C@H](C2CCCC2)N(C)C(=O)C2(CC(C)(C)C2)NC(=O)[C@@H]2CC(F)(F)CN2C(=O)[C@H](CCc2cc(F)c(C(F)(F)F)c(F)c2)NC(=O)CN(C)C(=O)[C@H](Cc2ccc(C(F)(F)F)cc2)N2CC/C=C\C[C@@H](C2=O)N(C)C(=O)CN(C)C1=O [PP1707] | A (a compound having 10 or more and less than 20 is denoted as A) | AA (a compound having 20 or more is denoted as AA) |
| 3.8 | CC[C@H](C)[C@@H]1NC(=O)[C@H](CC(F)F)N(C)C(=O)C[C@@H](C(=O)N(C)C)N(C)C(=O)[C@H](C2CCCC2)N(C)C(=O)C2(CC(C)(C)C2)NC(=O)[C@@H]2CC(F)(F)CN2C(=O)[C@H](CCc2cc(F)c(C(F)(F)F)c(F)c2)NC(=O)CN(C)C(=O)[C@H](Cc2ccc(C(F)(F)F)cc2)N2CC/C=C\C[C@@H](C2=O)N(C)C(=O)CN(C)C1=O [PP1709] | A (a compound having 10 or more and less than 20 is denoted as A) | A (a compound having 10 or more and less than 20 is denoted as A) |
| 4.1 | CC[C@H](C)[C@@H]1NC(=O)[C@H](CC(F)(F)F)N(C)C(=O)C[C@@H](C(=O)N(C)C)N(C)C(=O)[C@H](C2CCCC2)N(C)C(=O)C2(CC(C)(C)C2)NC(=O)[C@@H]2CC(F)(F)CN2C(=O)[C@H](CCc2cc(F)c(C(F)(F)F)c(F)c2)NC(=O)CN(C)C(=O)[C@H](Cc2ccc(C(F)(F)F)cc2)N2CC/C=C\C[C@@H](C2=O)N(C)C(=O)CN(C)C1=O [PP1710] | B (a compound having 3 or more and less than 10 is denoted as B) | A (a compound having 10 or more and less than 20 is denoted as A) |
| 5 | CCC[C@H]1C(=O)N[C@@H]([C@@H](C)CC)C(=O)N(C)CC(=O)N(C)[C@H]2C/C=C\CCN(C2=O)[C@@H](Cc2ccc(C(F)(F)F)cc2)C(=O)N(C)CC(=O)N[C@@H](CCc2cc(F)c(C(F)(F)F)c(F)c2)C(=O)N2CC(F)(F)C[C@H]2C(=O)NC2(CC(C)(C)C2)C(=O)N(C)[C@@H](C2CCCC2)C(=O)N(C)[C@H](C(=O)N(C)C)CC(=O)N1C [PP1711] | B (a compound having 3 or more and less than 10 is denoted as B) | A (a compound having 10 or more and less than 20 is denoted as A) |
| 7.9 | CC[C@H](C)[C@@H]1NC(=O)[C@H](CC2CC2)N(C)C(=O)C[C@@H](C(=O)N(C)C)N(C)C(=O)[C@H](C2CCCC2)N(C)C(=O)C2(CC(C)(C)C2)NC(=O)[C@@H]2CC(F)(F)CN2C(=O)[C@H](CCc2cc(F)c(C(F)(F)F)c(F)c2)NC(=O)CN(C)C(=O)[C@H](Cc2ccc(C(F)(F)F)cc2)N2CC/C=C\C[C@@H](C2=O)N(C)C(=O)CN(C)C1=O [PP1713] | A (a compound having 10 or more and less than 20 is denoted as A) | A (a compound having 10 or more and less than 20 is denoted as A) |
| 4.3 | CCCC[C@H]1C(=O)N[C@@H]([C@@H](C)CC)C(=O)N(C)CC(=O)N(C)[C@H]2C/C=C\CCN(C2=O)[C@@H](Cc2ccc(C(F)(F)F)cc2)C(=O)N(C)CC(=O)N[C@@H](CCc2cc(F)c(C(F)(F)F)c(F)c2)C(=O)N2CC(F)(F)C[C@H]2C(=O)NC2(CC(C)(C)C2)C(=O)N(C)[C@@H](C2CCCC2)C(=O)N(C)[C@H](C(=O)N(C)C)CC(=O)N1C [PP1714] | A (a compound having 10 or more and less than 20 is denoted as A) | A (a compound having 10 or more and less than 20 is denoted as A) |
